# From PubChem BioAssay (NCI)
#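 In this assay, cells in 96-well plates receive the compound at five concentrations for 48 hours. Endpoints are linearly interpolated between the surrounding concentrations. Abbreviation: GI50, concentration required for 50% inhibition of growth. The concentration for full growth arrest is given as TGI.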
# Tests used:
# Assay in all cases: NCI anticancer screen, dose series, 48 h
# [1] = system: MALME-3M melanoma
# [2] = system: COLO 205 colon
# [3] = system: BT-549 breast
# [4] = system: HCC-2998 colon
# [5] = system: K-562 leukemia
# [6] = system: MCF7 breast
# [7] = system: DU-145 prostate
# [8] = system: HOP-62 NSCLC
# [9] = system: KM12 colon
# [10] = system: SK-MEL-28 melanoma
# [11] = system: CAKI-1 renal
# [12] = system: OVCAR-3 ovarian
# [13] = system: A549 NSCLC
# [14] = system: 786-0 renal
# [15] = system: CCRF-CEM leukemia
# [16] = system: OVCAR-8 ovarian
# [17] = system: MDA-MB-435
# [18] = system: SW-620 colon
# [19] = system: SK-OV-3 ovarian
# [20] = system: T-47D breast
# [21] = system: RXF 393 renal
# [22] = system: UACC-257 melanoma
# [23] = system: SF-295 CNS
# [24] = system: OVCAR-4 ovarian
# [25] = system: RPMI-8226 leukemia
# [26] = system: LOX IMVI melanoma
# [27] = system: SF-539 CNS
# [28] = system: NCI-H522 lung
# [29] = system: OVCAR-5 ovarian
# [30] = system: MOLT-4 leukemia
# [31] = system: MDA-MB-231 breast
# [32] = system: SNB-19 CNS
# [33] = system: NCI-H226 lung
# [34] = system: U251 CNS
# [35] = system: SN12C renal
# [36] = system: SK-MEL-2 melanoma
# [37] = system: NCI/ADR-RES ovarian
# [38] = system: NCI-H460 lung
# [39] = system: PC-3 prostate
# [40] = system: NCI-H23 lung
# [41] = system: UACC-62 melanoma
# [42] = system: SF-268 CNS
# [43] = system: HOP-92 NSCLC
# [44] = system: M14 melanoma
# [45] = system: TK-10 renal
# [46] = system: SK-MEL-5 melanoma
# [47] = system: HT29 colon
# [48] = system: EKVX NSCLC
# [49] = system: A498 renal
# [50] = system: HCT-116 colon
# [51] = system: UO-31 renal
# [52] = system: SNB-75 CNS
# [53] = system: HL-60(TB) leukemia
# [54] = system: ACHN renal
# [55] = system: HCT-15 colon
# [56] = system: HS 578T breast
# [57] = system: IGROV1 ovarian
structure (smiles),measurement,setting,value
O=C1C=CC2(O)OC/C(=C\c3ccccc3)C(O)=C2C1=O (centres undefined),GI50,[1],1.51 µM
same,TGI,[1],5.15 µM
same,GI50,[2],2.63 µM
same,TGI,[2],6.33 µM
same,GI50,[3],2.02 µM
same,TGI,[3],6.98 µM
same,GI50,[4],1.82 µM
same,TGI,[4],3.32 µM
same,GI50,[5],0.476 µM
same,TGI,[5],> 100 µM
same,GI50,[6],1.22 µM
same,TGI,[6],10.2 µM
same,GI50,[7],2.51 µM
same,TGI,[7],9.36 µM
same,GI50,[8],2.89 µM
same,TGI,[8],9.32 µM
same,GI50,[9],1.4 µM
same,TGI,[9],3.02 µM
same,GI50,[10],2.59 µM
same,TGI,[10],6.41 µM
same,GI50,[11],1.59 µM
same,TGI,[11],3.2 µM
same,GI50,[12],1.14 µM
same,TGI,[12],3.23 µM
same,GI50,[13],2.52 µM
same,TGI,[13],6.88 µM
same,GI50,[14],1.3 µM
same,TGI,[14],3.04 µM
same,GI50,[15],0.534 µM
same,TGI,[15],25.9 µM
same,GI50,[16],2.71 µM
same,TGI,[16],10.3 µM
same,GI50,[17],1.95 µM
same,TGI,[17],4.74 µM
same,GI50,[18],1.6 µM
same,TGI,[18],3.68 µM
same,GI50,[19],15.2 µM
same,TGI,[19],> 100 µM
same,GI50,[20],2.47 µM
same,TGI,[20],10.6 µM
same,GI50,[21],1.5 µM
same,TGI,[21],2.95 µM
same,GI50,[22],1.82 µM
same,TGI,[22],4.5 µM
same,GI50,[23],2.58 µM
same,TGI,[23],6.32 µM
same,GI50,[24],2.37 µM
same,TGI,[24],8.87 µM
same,GI50,[25],0.285 µM
same,TGI,[25],0.838 µM
same,GI50,[26],1.4 µM
same,TGI,[26],2.76 µM
same,GI50,[27],1.24 µM
same,TGI,[27],2.87 µM
same,GI50,[28],0.196 µM
same,TGI,[28],0.535 µM
same,GI50,[29],2.17 µM
same,TGI,[29],4.5 µM
same,GI50,[30],0.791 µM
same,TGI,[30],14.4 µM
same,GI50,[31],0.648 µM
same,TGI,[31],3.51 µM
same,GI50,[32],2.65 µM
same,TGI,[32],9.7 µM
same,GI50,[33],3.11 µM
same,TGI,[33],31.4 µM
same,GI50,[34],1.39 µM
same,TGI,[34],3.03 µM
same,GI50,[35],1.21 µM
same,TGI,[35],8.38 µM
same,GI50,[36],2.02 µM
same,TGI,[36],5.77 µM
same,GI50,[37],2.57 µM
same,TGI,[37],12.7 µM
same,GI50,[38],1.98 µM
same,TGI,[38],4.32 µM
same,GI50,[39],1.35 µM
same,TGI,[39],4.19 µM
same,GI50,[40],1.65 µM
same,TGI,[40],3.38 µM
same,GI50,[41],1.51 µM
same,TGI,[41],3.76 µM
same,GI50,[42],2.1 µM
same,TGI,[42],7.08 µM
same,GI50,[43],1.27 µM
same,TGI,[43],3.59 µM
same,GI50,[44],2.95 µM
same,TGI,[44],11.7 µM
same,GI50,[45],2.99 µM
same,TGI,[45],7.84 µM
same,GI50,[46],1.57 µM
same,TGI,[46],2.98 µM
same,GI50,[47],3.62 µM
same,TGI,[47],11.8 µM
same,GI50,[48],1.9 µM
same,TGI,[48],5.43 µM
same,GI50,[49],10.8 µM
same,TGI,[49],22.8 µM
same,GI50,[50],1.88 µM
same,TGI,[50],4.08 µM
same,GI50,[51],0.722 µM
same,TGI,[51],2.03 µM
same,GI50,[52],1.95 µM
same,TGI,[52],9.68 µM
same,GI50,[53],0.517 µM
same,TGI,[53],7.76 µM
same,GI50,[54],1.53 µM
same,TGI,[54],2.92 µM
same,GI50,[55],0.868 µM
same,TGI,[55],3.38 µM
same,GI50,[56],0.259 µM
same,TGI,[56],3 µM
same,GI50,[57],1.83 µM
same,TGI,[57],9.7 µM
